Data published in paper PMC10065799, “High-throughput profiling of sequence recognition by tyrosine kinases and SH2 domains using bacterial peptide display” (eLife, 2023).

Biological target: T1, c-Abl kinase domain (Mus musculus, UniProt P00520)
T1 sequence (P00520 242-493 limits assumed): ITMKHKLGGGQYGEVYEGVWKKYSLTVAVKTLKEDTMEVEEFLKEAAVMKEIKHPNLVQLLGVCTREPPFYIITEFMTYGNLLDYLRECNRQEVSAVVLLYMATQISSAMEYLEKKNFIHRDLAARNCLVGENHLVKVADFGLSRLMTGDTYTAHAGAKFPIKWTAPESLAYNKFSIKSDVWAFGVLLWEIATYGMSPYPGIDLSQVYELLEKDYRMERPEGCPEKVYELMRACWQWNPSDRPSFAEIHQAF
Assay: pTyr-Var library bacterial peptide display kinase screen (enrichment scores)
Type: biochemical
Details: variant versus reference peptide

GMAHNYRNRSQ [AASS_Y188_S191R]
c-Abl difference (mean log2 variant - mean log2 reference): 0.7958
